± gives the expanded uncertainty stated by the source.
Settings: 323.14 K, Liquid, Vibrating tube method

FC(C(F)(F)F)C(F)(F)F [1,1,1,2,3,3,3-heptafluoropropane]
Settings	mass density [kg/m3]
10190 kPa	1363.3 ± 1.5
10206 kPa	1363.7 ± 1.5
10232 kPa	1363.8 ± 1.5
10249 kPa	1363.9 ± 1.5
10273 kPa	1364 ± 1.5
10288 kPa	1364 ± 1.5
10306 kPa	1364.3 ± 1.5
10331 kPa	1364.4 ± 1.5
10619 kPa	1366.6 ± 1.5
10640 kPa	1366.6 ± 1.5
10664 kPa	1366.8 ± 1.5
10682 kPa	1367 ± 1.5
10704 kPa	1367.2 ± 1.5
10722 kPa	1367.2 ± 1.5
10915 kPa	1368.6 ± 1.5
10935 kPa	1368.7 ± 1.5
10959 kPa	1368.8 ± 1.5
10980 kPa	1369 ± 1.5
10998 kPa	1369.1 ± 1.5
11021 kPa	1369.4 ± 1.5
11042 kPa	1369.4 ± 1.5
11057 kPa	1369.5 ± 1.5
11076 kPa	1369.7 ± 1.5
11096 kPa	1369.7 ± 1.5
11117 kPa	1370 ± 1.5
11135 kPa	1370.2 ± 1.5
11157 kPa	1370.3 ± 1.5
11177 kPa	1370.4 ± 1.5
11197 kPa	1370.5 ± 1.5
11213 kPa	1370.6 ± 1.5
11232 kPa	1370.9 ± 1.5
11253 kPa	1370.9 ± 1.5
11267 kPa	1370.9 ± 1.5
11292 kPa	1371.1 ± 1.5
11315 kPa	1371.3 ± 1.5
11336 kPa	1371.4 ± 1.5
11363 kPa	1371.8 ± 1.5
11565 kPa	1373.2 ± 1.5
11585 kPa	1373.1 ± 1.5
11609 kPa	1373.4 ± 1.5
11632 kPa	1373.4 ± 1.5
11649 kPa	1373.5 ± 1.5
11666 kPa	1373.6 ± 1.5
11689 kPa	1373.9 ± 1.5
11707 kPa	1374 ± 1.5
11729 kPa	1374.2 ± 1.5
11754 kPa	1374.2 ± 1.5
11777 kPa	1374.4 ± 1.5
11792 kPa	1374.5 ± 1.5
11810 kPa	1374.6 ± 1.5
11827 kPa	1374.8 ± 1.5
11848 kPa	1374.9 ± 1.5
11870 kPa	1375 ± 1.5
11893 kPa	1375.2 ± 1.5
11908 kPa	1375.3 ± 1.5
11927 kPa	1375.4 ± 1.5
11947 kPa	1375.6 ± 1.5
11965 kPa	1375.6 ± 1.5
11993 kPa	1375.7 ± 1.5
12013 kPa	1376 ± 1.5
12029 kPa	1376.1 ± 1.5
12054 kPa	1376.2 ± 1.5
12076 kPa	1376.4 ± 1.5
12099 kPa	1376.6 ± 1.5
12118 kPa	1376.8 ± 1.5
12139 kPa	1376.8 ± 1.5
12160 kPa	1377 ± 1.5
12176 kPa	1376.9 ± 1.5
12200 kPa	1377.2 ± 1.5
12222 kPa	1377.4 ± 1.5
12238 kPa	1377.4 ± 1.5
12262 kPa	1377.6 ± 1.5
12274 kPa	1377.8 ± 1.5
12293 kPa	1377.8 ± 1.5
12313 kPa	1377.9 ± 1.5
12329 kPa	1378.1 ± 1.5
12350 kPa	1378.1 ± 1.5
12373 kPa	1378.3 ± 1.5
12391 kPa	1378.5 ± 1.5
12410 kPa	1378.6 ± 1.5
12427 kPa	1378.8 ± 1.5
12447 kPa	1378.8 ± 1.5
12464 kPa	1378.9 ± 1.5
12483 kPa	1379.1 ± 1.5
12497 kPa	1379.2 ± 1.5
12514 kPa	1379.4 ± 1.5
12536 kPa	1379.3 ± 1.5
12551 kPa	1379.4 ± 1.5
12573 kPa	1379.6 ± 1.5
12589 kPa	1379.7 ± 1.5
12612 kPa	1379.9 ± 1.5
12627 kPa	1380 ± 1.5
12652 kPa	1380.2 ± 1.5
12677 kPa	1380.3 ± 1.5
12736 kPa	1380.7 ± 1.5
12755 kPa	1380.8 ± 1.5
13031 kPa	1382.6 ± 1.5
13052 kPa	1382.8 ± 1.5
13077 kPa	1382.9 ± 1.5
13095 kPa	1383 ± 1.5
13117 kPa	1382.9 ± 1.5
13141 kPa	1383.4 ± 1.5
13161 kPa	1383.4 ± 1.5
13263 kPa	1384.2 ± 1.5
13295 kPa	1384.2 ± 1.5
13310 kPa	1384.3 ± 1.5
13334 kPa	1384.5 ± 1.5
13348 kPa	1384.5 ± 1.5
13370 kPa	1384.7 ± 1.5
13389 kPa	1384.9 ± 1.5
13415 kPa	1385 ± 1.5
13433 kPa	1385 ± 1.5
13456 kPa	1385.2 ± 1.5
13476 kPa	1385.4 ± 1.5
13497 kPa	1385.5 ± 1.5
13522 kPa	1385.7 ± 1.5
13541 kPa	1385.7 ± 1.5
13570 kPa	1385.9 ± 1.5
13595 kPa	1386 ± 1.5
13614 kPa	1386.2 ± 1.5
13637 kPa	1386.4 ± 1.5
13663 kPa	1386.4 ± 1.5
13682 kPa	1386.6 ± 1.5
13710 kPa	1386.8 ± 1.5
13870 kPa	1387.7 ± 1.5
14734 kPa	1393 ± 1.6
14760 kPa	1393 ± 1.6
14781 kPa	1393.3 ± 1.6
14798 kPa	1393.4 ± 1.6
14818 kPa	1393.6 ± 1.6
14842 kPa	1393.7 ± 1.6
14866 kPa	1393.6 ± 1.6
14883 kPa	1393.8 ± 1.6
14902 kPa	1394 ± 1.6
14919 kPa	1394.1 ± 1.6
14940 kPa	1394.1 ± 1.6
14959 kPa	1394.3 ± 1.6
14983 kPa	1394.4 ± 1.6
15001 kPa	1394.4 ± 1.6
15028 kPa	1394.7 ± 1.6
15049 kPa	1394.9 ± 1.6
15077 kPa	1395 ± 1.6
15098 kPa	1395 ± 1.6
15122 kPa	1395.1 ± 1.6
15150 kPa	1395.5 ± 1.6
15173 kPa	1395.6 ± 1.6
15198 kPa	1395.7 ± 1.6
15219 kPa	1395.7 ± 1.6
15265 kPa	1396.1 ± 1.6
15284 kPa	1396.2 ± 1.6
15307 kPa	1396.3 ± 1.6
15326 kPa	1396.4 ± 1.6
15346 kPa	1396.5 ± 1.6
15368 kPa	1396.6 ± 1.6
15389 kPa	1396.7 ± 1.6
15413 kPa	1396.8 ± 1.6
15436 kPa	1397 ± 1.6
15456 kPa	1397.1 ± 1.6
15488 kPa	1397.3 ± 1.6
15504 kPa	1397.5 ± 1.6
15524 kPa	1397.5 ± 1.6
15550 kPa	1397.7 ± 1.6
15575 kPa	1397.8 ± 1.6
15602 kPa	1398 ± 1.6
15630 kPa	1398.1 ± 1.6
15655 kPa	1398.2 ± 1.6
15678 kPa	1398.5 ± 1.6
16094 kPa	1400.8 ± 1.6
16115 kPa	1400.9 ± 1.6
16141 kPa	1401 ± 1.6
16161 kPa	1401.1 ± 1.6
16188 kPa	1401.4 ± 1.6
17246 kPa	1407 ± 1.6
17274 kPa	1407.3 ± 1.6
17301 kPa	1407.6 ± 1.6
17357 kPa	1407.6 ± 1.6
17403 kPa	1407.9 ± 1.6
17424 kPa	1408 ± 1.6
17446 kPa	1408.2 ± 1.6
17472 kPa	1408.3 ± 1.6
17493 kPa	1408.4 ± 1.6
17519 kPa	1408.6 ± 1.6
17539 kPa	1408.5 ± 1.6
17574 kPa	1408.8 ± 1.6
17597 kPa	1408.9 ± 1.6
17623 kPa	1409 ± 1.6
17646 kPa	1409.2 ± 1.6
17666 kPa	1409.3 ± 1.6
17693 kPa	1409.4 ± 1.6
17717 kPa	1409.6 ± 1.6
17741 kPa	1409.7 ± 1.6
17761 kPa	1409.8 ± 1.6
17791 kPa	1410 ± 1.6
17819 kPa	1410.1 ± 1.6
17843 kPa	1410.3 ± 1.6
17864 kPa	1410.4 ± 1.6
17920 kPa	1410.7 ± 1.6
18206 kPa	1412.2 ± 1.6
18259 kPa	1412.5 ± 1.6
18289 kPa	1412.6 ± 1.6
18339 kPa	1412.9 ± 1.6
18360 kPa	1412.9 ± 1.6
18390 kPa	1413.2 ± 1.6
18414 kPa	1413.2 ± 1.6
18445 kPa	1413.4 ± 1.6

— the NIST ThermoML archive (doi:10.1021/je700260f)
